Where two headings read alike, the source gives them in different places. Marks after values point to notes of the source that are not given here.
Assay: Inhalation exposure: Compound A concentration in lung, plasma and BALF (Example 2)
Type: in vivo, BALB/c mice
Settings: for concentration at 2 h / concentration at 4 h / concentration at 8 h / concentration at 12 h / concentration at 24 h / concentration at 0.083 h / concentration at 0.25 h / concentration at 0.5 h / concentration at 1 h: male, BALB/c, mouse, lung, inhaled, read-out: Compound A concentration Lung; for concentration at 2 h / concentration at 4 h / concentration at 8 h / concentration at 12 h / concentration at 24 h / concentration at 0.083 h / concentration at 0.25 h / concentration at 0.5 h / concentration at 1 h / Compound A concentration Plasma: mice, 30 min inhalation
Procedure: A series of compositions for pulmonary delivery were prepared by making a 20% suspension of compound A in a 5% tyloxapol solution in water. Particle size reduction was achieved using a colloid mill (magicLAB®, MK module, for 6 hours @ 12,000 rpm, while maintaining a temperature below 50° C.). Samples at 4% w/v compound A were prepared by dilution with DI water.
Low (0.02 mg/L), mid (0.07 mg/L), and high (0.20 mg/L) target aerosol concentrations 0.3% Compound A/0.075% tyloxapol, 0.6% Compound A/0.15% tyloxapol, and 1.5% Compound A/0.375% tyloxapol suspensions were used. These low, mid, and high target formulations were prepared as follows: […]
4% compound A and 1% tyloxapol were removed from refrigeration and approximately 2.25, 4.5, and 12 mL were transferred into clean 50 mL graduated plastic tubes, labeled 0.3% A/0.075% tyloxapol, 0.6% A/0.15% tyloxapol, and 1.5% A/0.375% tyloxapol suspensions and allowed to warm to room temperature. Each was diluted to 20 mL with ultra pure water and vortexed until completely mixed. Each formulation was made the morning of exposure to alleviate any storing/stability issues.
Eighty-seven (87) male BALB/c mice (8 weeks of age on arrival and 18.6-24.6 g on exposure day) were purchased from Charles River Laboratories (Raleigh, N.C.). The three animals with the lowest body weights and the three with the highest body weights were excluded from the study on the day of randomization. The remaining eighty-one (81) animals were assigned to the study. Temperatures and relative humidity (RH) in animal housing areas were within the target range specified in the protocol.
Animals were exposed to one of three concentrations of Compound A aerosols for a target of 30 min.
The actual concentrations of test article in the exposure atmospheres were determined by chemical analysis of timed filter samples collected directly from a nose-only exposure port during exposure. In addition, one impactor sample was obtained to verify particle size distribution (PSD), which is characterized by mass median aerodynamic diameter (MMAD) and geometric standard deviation (GSD). The filters and impactor stages were analyzed chemically by LRRI and are described below.

[1] = nominal aerosol 0.02 mg/L, 12 h
[2] = nominal aerosol 0.02 mg/L, 24 h
[3] = nominal aerosol 0.07 mg/L, 0.083 h
[4] = nominal aerosol 0.07 mg/L, 0.25 h
[5] = nominal aerosol 0.07 mg/L, 0.5 h
[6] = nominal aerosol 0.07 mg/L, 12 h
[7] = nominal aerosol 0.07 mg/L, 24 h
[8] = nominal aerosol 0.2 mg/L, 0.083 h
[9] = nominal aerosol 0.2 mg/L, 0.25 h
[10] = nominal aerosol 0.2 mg/L, 0.5 h
[11] = mouse lung, aerosol conc. 0.02 mg/L
[12] = mouse lung, aerosol conc. 0.07 mg/L
[13] = mouse lung, aerosol conc. 0.2 mg/L

concentration at 2 h (nominal aerosol 0.02 mg/L, 2 h): 9550 ± 840 ng/g
concentration at 4 h (nominal aerosol 0.02 mg/L, 4 h): 10500 ± 3250 ng/g
concentration at 8 h (nominal aerosol 0.02 mg/L, 8 h): 5660 ± 3390 ng/g
concentration at 12 h [1]: 8670 ± 2310 ng/g
concentration at 24 h [2]: 3390 ± 2540 ng/g
concentration at 0.083 h [3]: 20600 ± 10100 ng/g
concentration at 0.25 h [4]: 16500 ± 2250 ng/g
concentration at 0.5 h [5]: 16600 ± 600 ng/g
concentration at 1 h (nominal aerosol 0.07 mg/L, 1 h): 17200 ± 2430 ng/g
concentration at 2 h (nominal aerosol 0.07 mg/L, 2 h): 22700 ± 5090 ng/g
concentration at 4 h (nominal aerosol 0.07 mg/L, 4 h): 17000 ± 1620 ng/g
concentration at 8 h (nominal aerosol 0.07 mg/L, 8 h): 15900 ± 3310 ng/g
concentration at 12 h [6]: 16800 ± 12500 ng/g
concentration at 24 h [7]: 10800 ± 660 ng/g
concentration at 0.083 h [8]: 41000 ± 10300 ng/g
concentration at 0.25 h [9]: 39200 ± 12300 ng/g
concentration at 0.5 h [10]: 67200 ± 39100 ng/g
concentration at 1 h (nominal aerosol 0.2 mg/L, 1 h): 37700 ± 8070 ng/g
concentration at 2 h (nominal aerosol 0.2 mg/L, 2 h): 49300 ± 15400 ng/g
concentration at 4 h (nominal aerosol 0.2 mg/L, 4 h): 44600 ± 2400 ng/g
concentration at 8 h (nominal aerosol 0.2 mg/L, 8 h): 44000 ± 12000 ng/g
concentration at 12 h (nominal aerosol 0.2 mg/L, 12 h): 40800 ± 6290 ng/g
concentration at 24 h (nominal aerosol 0.2 mg/L, 24 h): 26800 ± 2630 ng/g
Compound A concentration Plasma (nominal aerosol 0.02 mg/L, 0.083 h): 2.16 (⅔) ng/mL
Compound A concentration Plasma (nominal aerosol 0.02 mg/L, 0.25 h): <LLOQ
Compound A concentration Plasma (nominal aerosol 0.02 mg/L, 0.5 h): 1.98 (⅔) ng/mL
Compound A concentration Plasma (nominal aerosol 0.02 mg/L, 1 h): 1.19 (⅓) ng/mL
Compound A concentration Plasma (nominal aerosol 0.02 mg/L, 2 h): <LLOQ
Compound A concentration Plasma (nominal aerosol 0.02 mg/L, 4 h): <LLOQ
Compound A concentration Plasma (nominal aerosol 0.02 mg/L, 8 h): <LLOQ
Compound A concentration Plasma [1]: <LLOQ
Compound A concentration Plasma [2]: <LLOQ
Compound A concentration Plasma [3]: 5.43 (⅓) ng/mL
Compound A concentration Plasma [4]: 1.03 (⅓) ng/mL
Compound A concentration Plasma [5]: 2.45 (⅓) ng/mL
Compound A concentration Plasma (nominal aerosol 0.07 mg/L, 1 h): <LLOQ
Compound A concentration Plasma (nominal aerosol 0.07 mg/L, 2 h): <LLOQ
Compound A concentration Plasma (nominal aerosol 0.07 mg/L, 4 h): <LLOQ
Compound A concentration Plasma (nominal aerosol 0.07 mg/L, 8 h): <LLOQ
Compound A concentration Plasma [6]: 2.05 (⅓) ng/mL
Compound A concentration Plasma [7]: <LLOQ
Compound A concentration Plasma [8]: 1.34 (⅔) ng/mL
Compound A concentration Plasma [9]: 1.43 (⅓) ng/mL
Compound A concentration Plasma [10]: 1.15 (⅓) ng/mL
Compound A concentration Plasma (nominal aerosol 0.2 mg/L, 1 h): 1.62 (⅔) ng/mL
Compound A concentration Plasma (nominal aerosol 0.2 mg/L, 2 h): 1.21 (⅓) ng/mL
Compound A concentration Plasma (nominal aerosol 0.2 mg/L, 4 h): 1.21 (⅔) ng/mL
Compound A concentration Plasma (nominal aerosol 0.2 mg/L, 8 h): 2.19 (⅓) ng/mL
Compound A concentration Plasma (nominal aerosol 0.2 mg/L, 12 h): 2.08 (⅔) ng/mL
Compound A concentration Plasma (nominal aerosol 0.2 mg/L, 24 h): <LLOQ
Thalf (mouse BALF, aerosol conc. 0.02 mg/L): 39.8 h
Thalf (mouse BALF, aerosol conc. 0.07 mg/L): 16.7 h
Thalf (mouse BALF, aerosol conc. 0.2 mg/L): 17.0 h
AUC(0-24) [11]: 176 µg·h/g
AUCinf [11]: 247 µg·h/g
Thalf (mouse lung, aerosol conc. 0.02 mg/L, Regression Coefficient is less than 0.9): 14.5^# hrs
AUC(0-24) [12]: 373 µg·h/g
AUCinf [12]: 757 µg·h/g
Thalf (mouse lung, aerosol conc. 0.07 mg/L, Regression Coefficient is less than 0.9): 24.6^# hrs
AUC(0-24) [13]: 938 µg·h/g
AUCinf [13]: 1777 µg·h/g
Thalf [13]: 21.7 h
Structure (SMILES): Nc1nc(N)c2nc(-c3cccc(O)c3)c(-c3cccc(O)c3)nc2n1 [Compound A, 6,7-bis(3-hydroxyphenyl)-pteridine-2,4-diamine]

Source: patent publication US20110166149A1, “PTERIDINE DERIVATIVES FOR TREATING RESPIRATORY DISEASE” (TARGEGEN INC., priority 2008, published 2011)
